Consider 15 compounds from patent publication US20230192661A1, “1, 4, 5, 6-TETRAHYDROPYRIMIDINE-2-AMINE DERIVATIVE” (UBE Corporation, priority 2020, published 2023).

One test concerns the target T1, αvβ6 (Homo sapiens, UniProt P06756+P18564).
T1 construct: endogenous in cells; host or cells: HT-29 cells
The test can be described thus: αvβ6 cell adhesion inhibition test (HT-29 cells on recombinant human LAP protein). The conditions noted are these: recombinant human LAP coating, 200 μM MnCl2, 1 hour, read-out: IC50 (rate of inhibition of cell adhesion, αvβ6). The class given is cell-based. How it is done: Test Example 2 was performed by partially modifying the method of Henderson et al. (Nat Med., 19 (12), 1617-24, 2013). In Test Example 2, the same reagents as in Test Example 1 were used unless otherwise specified.
Recombinant human LAP protein (manufactured by R&D Systems, Inc., 246-LP-025) was prepared at […] with PBS, dispensed at 100 μL/well to a 96-well plate, and left standing overnight. The plate was washed with HBSS, then subjected to blocking treatment with DMEM containing 1% BSA, and used as a coated plate in the adhesion test.
HT-29 cells cultured in McCoy's 5A medium (manufactured by Thermo Fisher Scientific, Inc., 16600) containing 10% FBS and 1% penicillin/streptomycin/amphotericin B were recovered and suspended in DMEM containing 0.1% BSA and 200 μM MnCl2 to prepare a cell suspension. A test compound was added thereto.
The cell suspension of 5×10^5 cells/mL containing the test compound was added at 100 μL/well to the coated plate and left standing for 1 hour in a 5% CO2 incubator (37° C.). One hour later, the supernatant was removed, and the plate was washed with HBSS containing 200 μM MnCl2. The cells that adhered to each well in the plate were stained with crystal violet, and the cells were lysed, followed by absorbance measurement. Inhibition without substrate coating was defined as 100% inhibition, and inhibition when DMSO was added instead of the test compound was defined as 0% inhibition. The rate of inhibition of cell adhesion by the test compound was calculated according to the following expression.
Rate of inhibition of cell adhesion (%)=[1−{(Absorbance in the case of adding the test compound)−(Absorbance without substrate coating)}/{(Absorbance in the case of adding DMS)−(Absorbance without substrate coating)}]×100
An IC50 value was calculated from the rate of inhibition of cell adhesion by the test compound. A: IC50<3 nM, B: 3 nM≤IC50<10 nM, C: 10 nM≤IC50<30 nM, D: 30 nM≤IC50<100 nM, or E: IC50≥100 nM.

In test [1] the test system is Human hepatic stellate cells. The test can be described thus: Active human hepatic stellate cell dedifferentiation test (decrease in ACTA2 mRNA expression). The conditions noted are these: 3 days differentiation then 2 days with compound, read-out: IC50 (rate of decrease in ACTA2 mRNA expression). The format is cell-based. How it is done:
Human hepatic stellate cells (manufactured by ScienCell Research Laboratories, Inc., 5300) were suspended in DMEM containing 10% FBS and […] penicillin/streptomycin/amphotericin B to prepare a cell suspension of 0.5×10^5 cells/mL, which was regarded as cells at the start of differentiation. The cells at the start of differentiation were dispensed at 1 mL/well to a 12-well plate and cultured, for differentiation, for 3 days in a 5% CO2 incubator (37° C.).
The culture solution in each well was removed, and DMEM containing 10% FBS and 1% penicillin/streptomycin/amphotericin B supplemented with a test compound dissolved in DMSO (final DMSO concentration: 0.1%) was added at 1 mL/well. The resultant was further cultured for 2 days in a 5% CO2 incubator (37° C.). In Test Example 4, the same reagents as in Test Example 1 were used unless otherwise specified.
RNA in the cultured cells was extracted using NucleoSpin® RNA (manufactured by Takara Bio Inc., U0955C), and cDNA was further synthesized from the extracted RNA using Prime Script™ RT reagent Kit with gDNA Eraser (manufactured by Takara Bio Inc., RR047A). Real time PCR was performed using the synthesized cDNA, various primers and TB Green® Premix Ex Taq™ II (manufactured by Takara Bio Inc., RR820A) and using PCR Thermal Cycler Dice Real Time (manufactured by Takara Bio Inc., System Code TP910, Model Code TP900). The primers used were actin alpha 2, smooth muscle (ACTA2) primer (manufactured by Takara Bio Inc., HA136273) and glyceraldehyde-3-phosphate dehydrogenase (GAPDH) primer (manufactured by Takara Bio Inc., HA067812).
The amplification curve of PCR was analyzed by the comparative Ct method. The expression level of ACTA2 mRNA was corrected with the expression level of GAPDH mRNA. An ACTA2 mRNA expression level when DMSO was added instead of the test compound was defined as 100%, and an ACTA2 mRNA expression level in the cells at the start of differentiation was defined as 0%. The rate of decrease in ACTA2 mRNA expression by the test compound was calculated according to the following expression.
Rate of decrease in ACTA2 mRNA expression (%)=[1−{(ACTA2 mRNA expression level in the case of adding the test compound)−(ACTA2 mRNA expression level in the cells at the start of differentiation)}/{(ACTA2 mRNA expression level in the case of adding DMSO)−(ACTA2 mRNA expression level in the cells at the start of differentiation)}]×100
An IC50 value was calculated from the rate of decrease in ACTA2 mRNA expression by the test compound. A: IC50<10 nM, B: 10 nM≤IC50<50 nM, C: 50 nM≤IC50<100 nM, or D: IC50≥100 nM.

T1 sequence (P06756 31-889 limits assumed): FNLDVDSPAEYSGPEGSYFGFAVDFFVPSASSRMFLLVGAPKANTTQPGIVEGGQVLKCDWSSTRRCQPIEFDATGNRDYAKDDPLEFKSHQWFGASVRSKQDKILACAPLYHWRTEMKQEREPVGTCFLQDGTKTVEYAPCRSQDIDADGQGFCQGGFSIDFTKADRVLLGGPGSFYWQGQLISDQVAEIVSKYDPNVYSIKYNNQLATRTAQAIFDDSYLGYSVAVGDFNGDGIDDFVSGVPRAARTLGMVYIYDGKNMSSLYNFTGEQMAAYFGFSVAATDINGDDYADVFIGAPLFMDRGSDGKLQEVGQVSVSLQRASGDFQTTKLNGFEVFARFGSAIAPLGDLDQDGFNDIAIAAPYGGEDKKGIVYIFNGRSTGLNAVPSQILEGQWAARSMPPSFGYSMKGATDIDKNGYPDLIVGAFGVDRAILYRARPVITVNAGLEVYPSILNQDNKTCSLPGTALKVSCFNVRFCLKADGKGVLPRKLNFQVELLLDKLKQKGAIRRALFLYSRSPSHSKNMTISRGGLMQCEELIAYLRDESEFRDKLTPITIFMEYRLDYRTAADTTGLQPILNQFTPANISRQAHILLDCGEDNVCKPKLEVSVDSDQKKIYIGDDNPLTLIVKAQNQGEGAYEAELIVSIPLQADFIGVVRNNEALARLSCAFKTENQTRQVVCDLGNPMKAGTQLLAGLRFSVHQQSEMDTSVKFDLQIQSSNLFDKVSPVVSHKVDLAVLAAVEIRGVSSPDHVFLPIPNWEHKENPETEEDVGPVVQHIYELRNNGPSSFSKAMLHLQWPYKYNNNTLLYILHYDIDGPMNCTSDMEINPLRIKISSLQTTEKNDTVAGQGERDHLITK
T1 sequence (P06756 891-1048 limits assumed): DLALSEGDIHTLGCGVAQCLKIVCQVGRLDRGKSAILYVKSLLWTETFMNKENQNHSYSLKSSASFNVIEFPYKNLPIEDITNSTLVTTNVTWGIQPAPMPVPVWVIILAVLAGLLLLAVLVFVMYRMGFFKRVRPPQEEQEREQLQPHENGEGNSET
T1 sequence (P18564 22-788): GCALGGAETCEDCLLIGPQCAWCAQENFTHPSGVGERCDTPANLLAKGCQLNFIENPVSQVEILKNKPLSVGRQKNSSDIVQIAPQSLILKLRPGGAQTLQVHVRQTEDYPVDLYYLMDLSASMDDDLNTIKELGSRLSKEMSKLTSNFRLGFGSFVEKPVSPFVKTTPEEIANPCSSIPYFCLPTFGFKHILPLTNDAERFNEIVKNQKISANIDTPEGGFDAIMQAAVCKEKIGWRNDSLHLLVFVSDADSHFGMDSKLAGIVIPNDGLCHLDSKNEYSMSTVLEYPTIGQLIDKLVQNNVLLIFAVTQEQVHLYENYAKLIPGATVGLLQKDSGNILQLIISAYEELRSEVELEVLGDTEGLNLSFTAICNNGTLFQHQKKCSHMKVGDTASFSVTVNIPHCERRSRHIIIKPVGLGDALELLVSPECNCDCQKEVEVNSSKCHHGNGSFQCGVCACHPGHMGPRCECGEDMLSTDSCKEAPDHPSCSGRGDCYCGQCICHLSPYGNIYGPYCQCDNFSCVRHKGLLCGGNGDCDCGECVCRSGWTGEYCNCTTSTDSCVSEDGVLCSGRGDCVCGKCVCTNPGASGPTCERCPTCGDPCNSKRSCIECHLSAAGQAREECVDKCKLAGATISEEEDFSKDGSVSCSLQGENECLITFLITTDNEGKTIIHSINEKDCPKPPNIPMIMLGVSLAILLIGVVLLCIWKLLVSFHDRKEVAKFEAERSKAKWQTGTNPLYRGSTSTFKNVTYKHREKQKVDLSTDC

With `O=C(O)C[C@H](NC(=O)CNC(=O)c1cc(NC2=NCC(F)CN2)c2cn[nH]c2c1)c1cc(Cl)cc(C(F)(F)F)c1` (stereo partly drawn) [Example 1-(b), (3S)-3-(3-chloro-5-(trifluoromethyl)phenyl)-3-(2-(4-((5-fluoro-1,4,5,6-tetrahydropyrimidin-2-yl)amino)-1H-indazole-6-carboxamido)acetamido)propanoic acid], the IC50 (commonly the concentration that gives 50% inhibition) is less than 3 nM at αvβ6 and less than 10 nM in test [1].

For the compound `O=C(O)C[C@H](NC(=O)CNC(=O)c1cc(NC2=NCC(F)CN2)c2cn[nH]c2c1)c1cc(Br)cc(C(F)(F)F)c1` (stereo partly drawn) [Example 2-(b), (3S)-3-(3-bromo-5-(trifluoromethyl)phenyl)-3-(2-(4-((5-fluoro-1,4,5,6-tetrahydropyrimidin-2-yl)amino)-1H-indazole-6-carboxamido)acetamido)propanoic acid], the figures for the IC50 (on αvβ6; in test [1]) were less than 3 nM and 10 to 50 nM, respectively. Turning to `O=C(O)C[C@H](NC(=O)CNC(=O)c1cc(NC2=NCC(F)CN2)c2cn[nH]c2c1)c1cc(I)cc(C(F)(F)F)c1` (stereo partly drawn) [Example 3-(b), (3S)-3-(2-(4-((5-fluoro-1,4,5,6-tetrahydropyrimidin-2-yl)amino)-1H-indazole-6-carboxamido)acetamido)-3-(3-iodo-5-(trifluoromethyl)phenyl)propanoic acid], the IC50 on αvβ6 was less than 3 nM; in test [1], 10 to 50 nM.

On to `Cc1cc([C@H](CC(=O)O)NC(=O)CNC(=O)c2cc(NC3=NCC(F)CN3)c3cn[nH]c3c2)cc(C(F)(F)F)c1` (stereo partly drawn) [Example 4-(b), (3S)-3-(2-(4-((5-fluoro-1,4,5,6-tetrahydropyrimidin-2-yl)amino)-1H-indazole-6-carboxamido)acetamido)-3-(3-methyl-5-(trifluoromethyl)phenyl)propanoic acid], for which the IC50 was less than 3 nM at αvβ6 and 10 to 50 nM in test [1]. As to `COc1cc([C@H](CC(=O)O)NC(=O)CNC(=O)c2cc(NC3=NCC(F)CN3)c3cn[nH]c3c2)cc(C(F)(F)F)c1` (stereo partly drawn) [Example 5-(b), (3S)-3-(2-(4-((5-fluoro-1,4,5,6-tetrahydropyrimidin-2-yl)amino)-1H-indazole-6-carboxamido)acetamido)-3-(3-methoxy-5-(trifluoromethyl)phenyl)propanoic acid], the IC50 was less than 3 nM on αvβ6 and less than 10 nM in test [1]. As to `O=C(O)C[C@H](NC(=O)CNC(=O)c1cc(NC2=NCC(F)CN2)c2cn[nH]c2c1)c1cc(Cl)ccc1F` (stereo partly drawn) [Example 22-(b), (3S)-3-(5-chloro-2-fluorophenyl)-3-(2-(4-((5-fluoro-1,4,5,6-tetrahydropyrimidin-2-yl)amino)-1H-indazole-6-carboxamido)acetamido)propanoic acid], the IC50 on αvβ6 was 3 to 10 nM. Still for that read-out and setting: the figure for `O=C(O)C[C@H](NC(=O)CNC(=O)c1cc(NC2=NCC(F)CN2)c2cn[nH]c2c1)c1cc(Br)ccc1F` (stereo partly drawn) [Example 23-(b), (3S)-3-(5-bromo-2-fluorophenyl)-3-(2-(4-((5-fluoro-1,4,5,6-tetrahydropyrimidin-2-yl)amino)-1H-indazole-6-carboxamido)acetamido)propanoic acid] is 3 to 10 nM. The same measure, in the same setting: for `O=C(O)C[C@H](NC(=O)CNC(=O)c1cc(NC2=NCC(F)CN2)c2cn[nH]c2c1)c1ccc(F)c(OC(F)F)c1` (stereo partly drawn) [Example 27-(b), (3S)-3-(3-(difluoromethoxy)-4-fluorophenyl)-3-(2-(4-((5-fluoro-1,4,5,6-tetrahydropyrimidin-2-yl)amino)-1H-indazole-6-carboxamido)acetamido)propanoic acid] the value was 3 to 10 nM; for `O=C(O)C[C@H](NC(=O)CNC(=O)c1cc(NC2=NCC(F)CN2)c2cn[nH]c2c1)c1cc(OC(F)F)cc(-n2cccn2)c1` (stereo partly drawn) [Example 29-(b), (3S)-3-(3-(difluoromethoxy)-5-(1H-pyrazol-1-yl)phenyl)-3-(2-(4-((5-fluoro-1,4,5,6-tetrahydropyrimidin-2-yl)amino)-1H-indazole-6-carboxamido)acetamido)propanoic acid], less than 3 nM; for `Cc1cc(C)n(-c2cccc([C@H](CC(=O)O)NC(=O)CNC(=O)c3cc(NC4=NCC(F)CN4)c4cn[nH]c4c3)c2)n1` (stereo partly drawn) [Example 44-(b), (3S)-3-(3-(3,5-dimethyl-1H-pyrazol-1-yl)phenyl)-3-(2-(4-((5-fluoro-1,4,5,6-tetrahydropyrimidin-2-yl)amino)-1H-indazole-6-carboxamido)acetamido)propanoic acid], less than 3 nM. The same measure, in the same setting: the figure for `O=C(O)C[C@H](NC(=O)CNC(=O)c1cc(NC2=NCC(F)CN2)c2cn[nH]c2c1)c1cccc(N2CCOCC2)c1` (stereo partly drawn) [Example 45-(b), (3S)-3-(2-(4-((5-fluoro-1,4,5,6-tetrahydropyrimidin-2-yl)amino)-1H-indazole-6-carboxamido)acetamido)-3-(3-morpholinophenyl)propanoic acid] is 3 to 10 nM; for `O=C(O)C[C@H](NC(=O)CNC(=O)c1cc(NC2=NCC(F)CN2)c2cn[nH]c2c1)c1ccc(OC(F)F)cc1` (stereo partly drawn) [Example 46-(b), (3S)-3-(4-(difluoromethoxy)phenyl)-3-(2-(4-((5-fluoro-1,4,5,6-tetrahydropyrimidin-2-yl)amino)-1H-indazole-6-carboxamido)acetamido)propanoic acid] it is 3 to 10 nM; for `O=C(O)C[C@H](NC(=O)CNC(=O)c1cc(NC2=NCC(F)CN2)c2cn[nH]c2c1)c1ccc(C(F)(F)F)cc1` (stereo partly drawn) [Example 47-(b), (3S)-3-(2-(4-((5-fluoro-1,4,5,6-tetrahydropyrimidin-2-yl)amino)-1H-indazole-6-carboxamido)acetamido)-3-(4-(trifluoromethyl)phenyl)propanoic acid] it is 3 to 10 nM.

For the compound `O=C(O)C[C@H](NC(=O)CNC(=O)c1cc(NC2=NCC(O)CN2)c2cn[nH]c2c1)c1cc(Cl)cc(C(F)(F)F)c1` (stereo partly drawn) [Example 50-(b), (3S)-3-(3-chloro-5-(trifluoromethyl)phenyl)-3-(2-(4-((5-hydroxy-1,4,5,6-tetrahydropyrimidin-2-yl)amino)-1H-indazole-6-carboxamido)acetamido)propanoic acid], the IC50 on αvβ6 was in the range of 10 to 30 nM. The same measure, in the same setting: the figure for `O=C(O)C[C@H](NC(=O)CNC(=O)c1cc(NC2=NCCCN2)c2cn[nH]c2c1)c1cc(Cl)cc(C(F)(F)F)c1` [Example 51-(b), (S)-3-(3-chloro-5-(trifluoromethyl)phenyl)-3-(2-(4-((1,4,5,6-tetrahydropyrimidin-2-yl)amino)-1H-indazole-6-carboxamido)acetamido)propanoic acid] is 10 to 30 nM.
